Assay: Plasma biochemistry
Assay type: in vivo, mice (C57BL/6J)
Method: To detect the early stage prevention of colon cancer, an established AARGC rodent model with injection of the carcinogen AOM was used. Synthetic 6-bromoisatin at 3 different dosages (0.025, 0.05 and 0.1 mg/g body weight) was administered to mice by daily oral gavage in 100 µL sunflower oil, containing 0.02% Vitamin E, for two weeks. The control group was gavaged with sunflower oil (containing 0.02% Vitamin E) only. After two weeks, all mice were injected with a single intraperitoneal (i.p.) injection of AOM at a dosage of 10 mg/kg bodyweight and euthanized 6 h later by cervical dislocation under anesthesia. […] The distal colon of each mouse was excised and fixed in 10% buffered formalin for 24 h and then embedded in paraffin for histological and immunohistological examination.
Blood samples (0.5–1 mL) were obtained from the mice under anesthesia by cardiac puncture at time of kill and transferred to Gribbles Veterinary Pathology laboratory, Adelaide within heparinized vacutainer tubes then centrifuged to separate into the cell layer for hematology analysis (Abbott Cell Dyn 3700 analyzer, North Ryde, NSW, Australia) and plasma for biochemistry analysis (Siemens Advia 1800 chemistry analyzer, Erlangen, Germany). The plasma levels of the liver enzymes AST, ALT and ALP were assessed as indicators of hepatotoxicity.

[1] = 0.025 mg/g, n = 6, 6 h after AOM 10 mg/kg
[2] = 0.05 mg/g, n = 6, 6 h after AOM 10 mg/kg
[3] = 0.1 mg/g, n = 8, 6 h after AOM 10 mg/kg

- Albumin [1]: 28.7 ± 1.5 g/L
- Calcium [1]: 2.2 ± 0.1 mmol/L
- Creat. (Creatinine) [1]: 13.3 ± 0.8 µmol/L
- Globulin [1]: 18.0 ± 1.4 g/L
- NA/K (Sodium/Potassium ratio) [1]: 29.1 ± 1.2
- Potassium [1]: 5.1 ± 0.2 mmol/L
- Protein [1]: 46.7 ± 2.8 g/L
- Sodium [1]: 147.7 ± 0.5 mmol/L
- Urea [1]: 9.7 ± 1.6 mmol/L
- Albumin [2]: 27.8 ± 1.5 g/L
- Calcium [2]: 2.2 ± 0.04 mmol/L
- Creat. (Creatinine) [2]: 14.7 ± 0.5 µmol/L
- Globulin [2]: 18.3 ± 0.8 g/L
- NA/K (Sodium/Potassium ratio) [2]: 33.5 ± 2.7
- Potassium [2]: 4.5 ± 0.4 mmol/L
- Protein [2]: 46.2 ± 1.9 g/L
- Sodium [2]: 149.7 ± 1.4 mmol/L
- Urea [2]: 9.9 ± 1.4 mmol/L
- Albumin [3]: 28.2 ± 1.5 g/L
- Calcium [3]: 2.2 ± 0.1 mmol/L
- Creat. (Creatinine) [3]: 14.6 ± 1.2 µmol/L
- Globulin [3]: 17.9 ± 1.2 g/L
- NA/K (Sodium/Potassium ratio) [3]: 34.1 ± 3.6
- Potassium [3]: 4.3 ± 0.4 mmol/L
- Protein [3]: 46.1 ± 2.2 g/L
- Sodium [3]: 149.7 ± 1.2 mmol/L
- Urea [3]: 9.6 ± 1.2 mmol/L
SMILES: O=C1Nc2cc(Br)ccc2C1=O [6-bromoisatin, 6-Bromoindole-2,3-dione]
